Molecular target: T1, Proteasome Macropain subunit MB1 (Homo sapiens, UniProt P28074)
T1 sequence (P28074 whole entry): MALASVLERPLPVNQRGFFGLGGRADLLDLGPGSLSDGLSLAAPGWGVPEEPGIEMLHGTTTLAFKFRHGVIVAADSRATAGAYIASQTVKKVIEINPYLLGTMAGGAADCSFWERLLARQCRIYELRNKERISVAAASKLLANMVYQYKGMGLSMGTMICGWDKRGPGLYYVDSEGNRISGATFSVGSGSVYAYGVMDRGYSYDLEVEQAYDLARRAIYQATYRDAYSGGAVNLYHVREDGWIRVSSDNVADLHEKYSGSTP
Description: Inhibition of chymotrypsin like activity of proteasome

Row | SMILES | IC50 [µM]
1 | CCOC(=O)/C=C/[C@H](CC(C)C)NC(=O)[C@H](CCC(N)=O)NC(=O)[C@H](Cc1ccccc1)NC(=O)c1cccc(O)c1C | 2.23
2 | CCOC(=O)/C=C/[C@H](CC(C)C)NC(=O)[C@H](CCC(N)=O)NC(=O)[C@@H](NC(=O)[C@@H](N)Cc1ccc(O)cc1)C(C)C | 4.32
3 | CC(C)C[C@@H](/C=C/S(C)(=O)=O)NC(=O)[C@H](CC(C)C)NC(=O)[C@H](CC(C)C)NC(=O)OCc1ccccc1 | 0.061

The remaining molecules from weak to strong by IC50, led by results:

Row | IC50 [µM] | SMILES
4 | 6.67 | CCOC(=O)/C=C/[C@H](CC(C)C)NC(=O)[C@H](CCC(N)=O)NC(=O)[C@@H](NC(=O)c1cccc(O)c1C)C(C)C
5 | 4.15 | CCOC(=O)/C=C/[C@H](CC(C)C)NC(=O)[C@H](CCC(N)=O)NC(=O)[C@@H](NC(=O)[C@@H](N)Cc1ccccc1)C(C)C

Source: ChEMBL document CHEMBL1147821, “P3 and P4 position analysis of vinyl ester pseudopeptide proteasome inhibitors” (Bioorg Med Chem Lett, 2006)
